Measurements: patent US9936701B2, “Herbicidal compounds” (Syngenta Participations AG, priority 2013, dated 2018)

How the values were obtained:
[1] = tested on: a variety of test species; experiment: Post-emergence herbicidal activity (glasshouse, sprayed after 8 days cultivation, evaluated after 13 days); type: in vivo; parameters: key: 5=total damage to plant; 0=no damage to plant; conditions: rate 1000 g/Ha, scale 0-5
Procedure, shortened: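 Foliar application to 8-day-old plants using a 0.5% Tween 20 acetone/water carrier; phytotoxicity is scored visually from 0 to 5 after 13 days of growth at 24/16 °C day/night.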

[2] = tested on: a variety of test species; experiment: Pre-emergence herbicidal activity (glasshouse, sprayed one day after sowing, evaluated after 13 days); type: in vivo; parameters: key: 5=total damage to plant; 0=no damage to plant; conditions: application pre-emergence, rate 1000 g/Ha, scale 0-5
Procedure, shortened: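 Damage rated 13 days post-treatment on a 0-5 scale, 5 meaning total plant damage. Pots were sprayed pre-emergence, one day after sowing, with an acetone/water-derived aqueous spray containing 0.5% Tween 20. Plants grew under 14 h light, 65% humidity, 24/16 °C, watered twice daily.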

Row | SMILES | melting point [°C] | ABUTH (Abutilon theophrasti) damage score, application post-emergence [1] | ALOMY (Alopecurus myosuroides) damage score, application post-emergence [1] | AMARE (Amaranthus retroflexus) damage score, application post-emergence [1] | ECHCG (Echinochloa crus-galli) damage score, application post-emergence [1] | SETFA (Setaria faberi) damage score, application post-emergence [1] | ZEAMX (Zea mays) damage score, application post-emergence [1] | Pre-emergence herbicidal damage score, ABUTH [2] | Pre-emergence herbicidal damage score, ALOMY [2] | Pre-emergence herbicidal damage score, AMARE [2] | Pre-emergence herbicidal damage score, ECHCG [2] | Pre-emergence herbicidal damage score, SETFA [2] | Pre-emergence herbicidal damage score, ZEAMX [2]
1 | CC1=C(Cl)C(=O)N(c2cc(C(C)(C)C)on2)C1OC(=O)OCC(C)C (stereo not shown) [A80] | 84 to 88 | 5 | 5 | 5 | 5 | 5 | 3 | 5 | 4 | 5 | 5 | 5 | 3
2 | CC1=C(Cl)C(=O)N(c2cc(C(C)(C)C)on2)C1OC(=O)Oc1ccccc1 (stereo not shown) [A84] | 113 to 127 | 5 | 5 | 5 | 5 | 5 | 3 | 5 | 4 | 5 | 5 | 5 | 3
3 | CC(=O)OC1C(C)=C(Cl)C(=O)N1c1noc(C(C)(C)C)c1C#N (stereo not shown) [A94, [1-(5-tert-butyl-4-cyano-isoxazol-3-yl)-4-chloro-3-methyl-5-oxo-2H-pyrrol-2-yl]acetate] | 130 to 132 | 5 | 5 | 5 | 5 | 5 | 4 | 5 | 4 | 5 | 5 | 5 | 3
4 | CC1=C(Cl)C(=O)N(c2noc(C(C)(C)C)c2C#N)C1OC(=O)C(C)(C)C (stereo not shown) [A95] | 95 to 97 | 5 | 5 | 5 | 5 | 5 | 3 | 4 | 4 | 5 | 5 | 5 | 3
5 | CCCC1=C(Cl)C(=O)N(c2noc(C(C)(C)C)c2C#N)C1OC(=O)CC (stereo not shown) [A100] | 69 to 71 | 5 | 5 | 5 | 5 | 5 | 5 | 5 | 4 | 5 | 5 | 5 | 3
6 | CC1=C(Cl)C(=O)N(c2cc(C(C)(C)C)on2)C1 [A101] | 138 to 139 | 5 | 5 | 5 | 5 | 5 | 4 | 5 | 4 | 5 | 5 | 4 | 3
7 | CC1=C(Cl)C(=O)N(c2noc(C(C)C)c2C#N)C1 [A103] | 112 to 114 | 5 | 4 | 5 | 5 | 5 | 3 | 5 | 4 | 5 | 5 | 5 | 2
8 | CC1=C(Cl)C(=O)N(c2cc(C(C)(C)C#N)on2)C1 [A104] | 141 to 143 | 5 | 5 | 5 | 5 | 5 | 5 | 5 | 4 | 5 | 5 | 5 | 2
9 | COC1=C(Br)C(=O)N(c2cc(C(C)(C)C)on2)C1O (stereo not shown) [B2] | 140 to 160 | 5 | 4 | 5 | 5 | 4 | 5 | 5 | 4 | 5 | 5 | 4 | 1
10 | C=CCNC1=C(Cl)C(=O)N(c2cc(C(C)(C)C)on2)C1O (stereo not shown) [C7] | 163 to 164 | 5 | 4 | 5 | 5 | 5 | 3 | 5 | 3 | 5 | 5 | 3 | 2
11 | CC(C)(C)c1cc(N2C(=O)C(Cl)=C(NC3CC3)C2O)no1 (stereo not shown) [C8] | 179 to 180 | 5 | 4 | 5 | 5 | 5 | 4 | 5 | 3 | 5 | 5 | 3 | 2
12 | COC1=C(C)C(O)N(c2cc(C(C)(C)C)on2)C1=O (stereo not shown) [D1, 1-(5-tert-butylisoxazol-3-yl)-2-hydroxy-4-methoxy-3-methyl-2H-pyrrol-5-one] | 82 to 95 | 5 | 4 | 5 | 5 | 5 | 4 | 5 | 4 | 5 | 4 | 5 | 2
13 | COC1=C(C)C(O)N(c2noc(C(C)(C)C)c2C#N)C1=O (stereo not shown) [D2, 5-tert-butyl-3-(2-hydroxy-4-methoxy-3-methyl-5-oxo-2H-pyrrol-1-yl)isoxazole-4-carbonitrile] | 98 to 100 | 5 | 5 | 5 | 5 | 5 | 4 | 5 | 3 | 5 | 4 | 5 | 3
